Experimental data reported in ChEMBL document CHEMBL1909046, “DrugMatrix in vitro pharmacology data”.

Legend:
[1] = biological target: T1, Receptor-type tyrosine-protein phosphatase C (Homo sapiens, UniProt P08575); design: species or system Escherichia coli;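 note: inhibition of CD45 enzyme activity measured using DiFMUP as substrate; in other assays of this panel Not Active means under 50% inhibition at 10 µM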
T1 sequence (P08575 whole entry): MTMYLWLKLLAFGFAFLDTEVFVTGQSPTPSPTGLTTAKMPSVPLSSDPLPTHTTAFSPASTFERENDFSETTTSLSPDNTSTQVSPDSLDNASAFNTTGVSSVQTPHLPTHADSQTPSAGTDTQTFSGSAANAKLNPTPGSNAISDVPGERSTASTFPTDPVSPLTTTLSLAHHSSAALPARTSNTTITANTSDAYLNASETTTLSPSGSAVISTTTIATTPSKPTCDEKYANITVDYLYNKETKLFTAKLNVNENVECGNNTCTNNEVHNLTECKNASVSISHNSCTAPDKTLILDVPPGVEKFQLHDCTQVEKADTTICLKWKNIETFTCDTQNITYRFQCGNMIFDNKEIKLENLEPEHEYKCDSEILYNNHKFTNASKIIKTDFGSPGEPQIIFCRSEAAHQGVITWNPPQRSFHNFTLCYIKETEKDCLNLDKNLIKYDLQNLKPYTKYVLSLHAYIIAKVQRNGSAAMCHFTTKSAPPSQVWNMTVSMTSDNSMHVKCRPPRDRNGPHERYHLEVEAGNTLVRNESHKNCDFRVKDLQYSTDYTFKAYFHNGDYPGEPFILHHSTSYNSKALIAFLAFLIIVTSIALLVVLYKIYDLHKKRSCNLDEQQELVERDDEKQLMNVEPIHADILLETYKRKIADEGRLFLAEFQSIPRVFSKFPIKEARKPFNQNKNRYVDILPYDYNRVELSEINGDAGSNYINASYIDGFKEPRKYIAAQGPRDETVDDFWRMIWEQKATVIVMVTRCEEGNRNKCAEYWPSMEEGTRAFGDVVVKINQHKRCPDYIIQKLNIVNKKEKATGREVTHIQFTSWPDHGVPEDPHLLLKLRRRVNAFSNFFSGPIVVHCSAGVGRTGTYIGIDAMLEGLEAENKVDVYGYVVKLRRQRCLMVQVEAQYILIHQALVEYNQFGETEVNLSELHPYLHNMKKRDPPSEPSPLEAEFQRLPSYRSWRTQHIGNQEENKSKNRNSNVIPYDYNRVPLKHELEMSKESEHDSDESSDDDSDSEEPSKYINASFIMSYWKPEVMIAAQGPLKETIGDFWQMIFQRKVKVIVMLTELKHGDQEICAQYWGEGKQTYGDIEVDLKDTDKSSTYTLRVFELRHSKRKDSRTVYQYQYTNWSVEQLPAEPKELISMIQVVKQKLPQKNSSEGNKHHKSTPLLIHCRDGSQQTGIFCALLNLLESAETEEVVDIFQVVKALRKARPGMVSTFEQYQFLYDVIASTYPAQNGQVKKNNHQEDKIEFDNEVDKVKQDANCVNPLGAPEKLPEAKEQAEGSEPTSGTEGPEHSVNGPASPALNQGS

[2] = biological target: Platelet-activating factor receptor (Homo sapiens, UniProt P25105); type: tissue-based; note: in other assays of this panel Not Active means under 50% inhibition at 10 µM
[3] = biological target: Sigma non-opioid intracellular receptor 1 (Homo sapiens, UniProt Q99720); assay: DRUGMATRIX: Sigma1 radioligand binding (ligand: [3H] Haloperidol); type: cell membranes, Jurkat, Membrane; settings: Not Active = under 50% inhibition at 10 µM; for Ki: read-out: Ki
[4] = biological target: T2, Alpha-1D adrenergic receptor (Homo sapiens, UniProt P25100); type: cell membranes, HEK293, Membrane; settings: hek293; note: in other assays of this panel Not Active means under 50% inhibition at 10 µM
T2 sequence (P25100 whole entry): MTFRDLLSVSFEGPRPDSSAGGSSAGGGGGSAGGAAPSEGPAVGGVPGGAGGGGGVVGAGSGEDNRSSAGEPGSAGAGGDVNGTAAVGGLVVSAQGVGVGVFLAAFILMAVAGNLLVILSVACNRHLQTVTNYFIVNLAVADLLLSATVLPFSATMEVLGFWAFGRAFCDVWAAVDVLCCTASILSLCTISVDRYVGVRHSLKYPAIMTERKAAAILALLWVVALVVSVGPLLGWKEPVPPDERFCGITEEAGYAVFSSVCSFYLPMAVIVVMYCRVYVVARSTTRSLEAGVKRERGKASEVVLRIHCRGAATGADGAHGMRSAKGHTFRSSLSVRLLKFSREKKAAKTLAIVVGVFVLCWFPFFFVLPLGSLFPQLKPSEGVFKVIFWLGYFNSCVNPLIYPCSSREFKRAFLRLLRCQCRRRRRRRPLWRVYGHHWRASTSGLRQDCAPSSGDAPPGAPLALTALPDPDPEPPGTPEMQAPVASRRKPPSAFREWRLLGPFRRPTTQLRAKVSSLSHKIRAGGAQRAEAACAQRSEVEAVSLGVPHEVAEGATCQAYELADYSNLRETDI

[5] = biological target: Sodium-dependent noradrenaline transporter (Homo sapiens, UniProt P23975); assay: DRUGMATRIX: Norepinephrine Transporter radioligand binding (ligand: [125I] RTI-55); type: cell membranes, MDCK, Membrane; settings: Not Active = under 50% inhibition at 10 µM; for Ki: read-out: Ki
[6] = biological target: Receptor tyrosine-protein kinase erbB-2 (Homo sapiens, UniProt P04626); assay: biochemical; type: cell-based, Insect cells; settings: insect cells;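 note: inhibition of HER2 kinase enzyme activity, measured with Poly(Glu:Tyr) as the phosphorylation substrate; in other assays of this panel Not Active means under 50% inhibition at 10 µM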
Sequence of Receptor tyrosine-protein kinase erbB-2 (P04626 whole entry): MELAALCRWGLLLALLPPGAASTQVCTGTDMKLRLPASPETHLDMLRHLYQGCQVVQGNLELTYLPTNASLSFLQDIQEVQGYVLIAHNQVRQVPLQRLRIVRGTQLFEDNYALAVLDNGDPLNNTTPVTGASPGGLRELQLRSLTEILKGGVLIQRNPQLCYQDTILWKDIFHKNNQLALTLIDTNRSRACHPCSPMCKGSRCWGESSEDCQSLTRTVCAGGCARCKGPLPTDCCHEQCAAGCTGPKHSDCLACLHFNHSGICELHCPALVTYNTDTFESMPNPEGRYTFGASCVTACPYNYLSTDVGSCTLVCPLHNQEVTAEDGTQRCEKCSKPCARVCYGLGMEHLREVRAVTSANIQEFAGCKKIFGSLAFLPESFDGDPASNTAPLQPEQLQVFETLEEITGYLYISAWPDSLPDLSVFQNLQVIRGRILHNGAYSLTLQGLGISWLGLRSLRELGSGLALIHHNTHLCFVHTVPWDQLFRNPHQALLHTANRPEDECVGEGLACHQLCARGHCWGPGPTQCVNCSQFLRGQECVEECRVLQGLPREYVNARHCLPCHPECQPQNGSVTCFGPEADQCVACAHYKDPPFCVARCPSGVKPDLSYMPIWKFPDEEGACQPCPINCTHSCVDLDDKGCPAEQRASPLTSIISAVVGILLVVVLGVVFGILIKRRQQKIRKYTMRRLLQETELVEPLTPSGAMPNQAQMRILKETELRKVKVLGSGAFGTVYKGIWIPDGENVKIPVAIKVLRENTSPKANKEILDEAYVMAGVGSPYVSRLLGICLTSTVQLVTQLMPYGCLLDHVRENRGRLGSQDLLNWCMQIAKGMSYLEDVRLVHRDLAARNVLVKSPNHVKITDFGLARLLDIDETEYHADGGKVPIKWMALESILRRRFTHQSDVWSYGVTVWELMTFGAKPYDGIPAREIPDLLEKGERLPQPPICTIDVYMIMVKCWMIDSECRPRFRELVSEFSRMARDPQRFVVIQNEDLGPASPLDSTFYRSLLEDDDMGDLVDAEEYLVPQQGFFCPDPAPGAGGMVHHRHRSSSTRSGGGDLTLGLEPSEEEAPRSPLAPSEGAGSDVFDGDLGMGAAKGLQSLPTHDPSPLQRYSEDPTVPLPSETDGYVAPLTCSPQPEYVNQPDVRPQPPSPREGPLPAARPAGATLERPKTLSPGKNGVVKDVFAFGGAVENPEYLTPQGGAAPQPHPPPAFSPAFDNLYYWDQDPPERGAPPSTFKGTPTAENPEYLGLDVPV

Sequence of Platelet-activating factor receptor (P25105 whole entry): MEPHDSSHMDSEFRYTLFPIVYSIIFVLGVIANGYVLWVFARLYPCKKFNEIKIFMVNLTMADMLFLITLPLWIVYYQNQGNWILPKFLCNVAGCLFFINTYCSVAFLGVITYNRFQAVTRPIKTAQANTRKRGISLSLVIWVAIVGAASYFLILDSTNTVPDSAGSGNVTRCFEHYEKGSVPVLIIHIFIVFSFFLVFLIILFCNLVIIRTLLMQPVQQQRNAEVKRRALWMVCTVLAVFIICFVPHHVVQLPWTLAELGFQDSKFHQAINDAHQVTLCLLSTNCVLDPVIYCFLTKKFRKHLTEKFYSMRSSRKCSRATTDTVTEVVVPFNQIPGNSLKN
Sequence of Sodium-dependent noradrenaline transporter (P23975 whole entry): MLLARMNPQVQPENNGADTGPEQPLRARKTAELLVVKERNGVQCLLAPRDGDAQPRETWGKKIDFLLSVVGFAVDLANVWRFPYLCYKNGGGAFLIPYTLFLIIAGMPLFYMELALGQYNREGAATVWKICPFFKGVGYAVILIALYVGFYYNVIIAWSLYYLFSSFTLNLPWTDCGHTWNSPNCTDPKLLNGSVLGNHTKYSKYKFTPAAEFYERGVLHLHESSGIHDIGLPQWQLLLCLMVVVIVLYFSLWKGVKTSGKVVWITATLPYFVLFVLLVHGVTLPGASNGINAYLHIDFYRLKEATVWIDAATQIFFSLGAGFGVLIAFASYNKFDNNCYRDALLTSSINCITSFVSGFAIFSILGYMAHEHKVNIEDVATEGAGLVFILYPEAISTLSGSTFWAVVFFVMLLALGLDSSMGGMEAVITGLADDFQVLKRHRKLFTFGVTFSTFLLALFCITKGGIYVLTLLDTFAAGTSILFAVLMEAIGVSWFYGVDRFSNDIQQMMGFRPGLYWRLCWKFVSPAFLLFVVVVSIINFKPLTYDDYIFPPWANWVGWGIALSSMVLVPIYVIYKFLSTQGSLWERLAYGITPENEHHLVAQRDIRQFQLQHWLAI
Sequence of Sigma non-opioid intracellular receptor 1 (Q99720 whole entry): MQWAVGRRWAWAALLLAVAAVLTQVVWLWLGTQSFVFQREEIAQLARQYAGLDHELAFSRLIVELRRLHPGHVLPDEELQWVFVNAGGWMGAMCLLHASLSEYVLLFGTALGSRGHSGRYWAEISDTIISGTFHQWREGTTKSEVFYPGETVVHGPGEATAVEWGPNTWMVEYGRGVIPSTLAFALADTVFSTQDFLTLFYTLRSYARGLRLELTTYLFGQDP

Row | SMILES | IC50 [1] | IC50 [2] | IC50 ([3]; jurkat) | IC50 [4] | IC50 ([5]; mdck) | IC50 [6] | IC50 ([5]; read-out: IC50) | Ki [5] | IC50 ([3]; read-out: IC50) | Ki [3]
1 | COc1ccc2c(c1)c(CC(=O)O)c(C)n2C(=O)c1ccc(Cl)cc1 [INDOMETHACIN] | Not Active | Not Active | Not Active | Not Active | Not Active | Not Active |  |  |  | 
2 | CCc1c2c(nc3ccc(OC(=O)N4CCC(N5CCCCC5)CC4)cc13)-c1cc3c(c(=O)n1C2)COC(=O)[C@]3(O)CC [IRINOTECAN] | Not Active | Not Active | Not Active | Not Active | Not Active | Not Active |  |  |  | 
3 | CC(C(=O)O)c1cccc(C(=O)c2ccccc2)c1 (configuration not stated) [KETOPROFEN] | Not Active | Not Active | Not Active | Not Active | Not Active | Not Active |  |  |  | 
4 | Nc1ccn([C@@H]2CS[C@H](CO)O2)c(=O)n1 [LAMIVUDINE] | Not Active | Not Active | Not Active | Not Active | Not Active | Not Active |  |  |  | 
5 | O=S(=O)([O-])CCS.[Na+] [MESNA] | Not Active | Not Active | Not Active | Not Active | Not Active | Not Active |  |  |  | 
6 | C#C[C@]1(O)CC[C@H]2[C@@H]3CCc4cc(OC)ccc4[C@H]3CC[C@@]21C [MESTRANOL] | Not Active | Not Active | Not Active | Not Active |  | Not Active | 1380 nM | 1370 nM |  | 
7 | CC(=O)Nc1cccc(O)c1 [METACETAMOL] | Not Active | Not Active | Not Active | Not Active | Not Active | Not Active |  |  |  | 
8 | Cc1ncc([N+](=O)[O-])n1CCO [METRONIDAZOLE] | Not Active | Not Active | Not Active | Not Active | Not Active | Not Active |  |  |  | 
9 | CC(C)(C(=O)c1cccnc1)c1cccnc1 [METYRAPONE] | Not Active | Not Active | Not Active | Not Active | Not Active | Not Active |  |  |  | 
10 | Oc1ccc(OCc2ccccc2)cc1 [MONOBENZONE] | Not Active | Not Active | Not Active | Not Active |  | Not Active | 3890 nM | 3850 nM |  | 
11 | CC(C)(Oc1ccc(C2CCCc3ccccc32)cc1)C(=O)O (configuration not stated) [NAFENOPIN] | Not Active | Not Active | Not Active | Not Active | Not Active | Not Active |  |  |  | 
12 | COc1ccc2cc([C@H](C)C(=O)O)ccc2c1 [NAPROXEN] | Not Active | Not Active | Not Active | Not Active | Not Active | Not Active |  |  |  | 
13 | CC(C)[C@H]1CC[C@H](C(=O)N[C@H](Cc2ccccc2)C(=O)O)CC1 [NATEGLINIDE] | Not Active | Not Active | Not Active | Not Active | Not Active | Not Active |  |  |  | 
14 | CCN[C@@H]1C[C@H](N)[C@@H](O[C@H]2OC(CN)=CC[C@H]2N)[C@H](O)[C@H]1O[C@H]1OC[C@](C)(O)[C@H](NC)[C@H]1O [NETILMICIN] | Not Active | Not Active | Not Active | Not Active | Not Active | Not Active |  |  |  | 
15 | COC(=O)C1=C(C)NC(C)=C(C(=O)OCC(C)C)C1c1ccccc1[N+](=O)[O-] (configuration not stated) [NISOLDIPINE] | Not Active | Not Active | Not Active | Not Active | Not Active | Not Active |  |  |  | 
16 | CCOC(=O)C1=C(C)NC(C)=C(C(=O)OC)C1c1cccc([N+](=O)[O-])c1 (configuration not stated) [NITRENDIPINE] | Not Active | Not Active | Not Active | Not Active | Not Active | Not Active |  |  |  | 
17 | C#C[C@]1(OC(C)=O)CC[C@H]2[C@@H]3CCC4=CC(=O)CC[C@@H]4[C@H]3CC[C@@]21C [NORETHINDRONE ACETATE] | Not Active | Not Active | Not Active | Not Active | Not Active | Not Active |  |  |  | 
18 | COc1ccc2[nH]c([S+]([O-])Cc3ncc(C)c(OC)c3C)nc2c1 (configuration not stated) [OMEPRAZOLE] | Not Active | Not Active | Not Active | Not Active | Not Active | Not Active |  |  |  | 
19 | Cc1nccn1CC1CCc2c(c3ccccc3n2C)C1=O (configuration not stated) [ONDANSETRON] | Not Active | Not Active | Not Active | Not Active | Not Active | Not Active |  |  |  | 
20 | CCn1cc(C(=O)O)c(=O)c2cc(F)c(N3CCN(C)CC3)cc21 [PEFLOXACIN] | Not Active | Not Active | Not Active | Not Active | Not Active | Not Active |  |  |  | 
21 | CCCCOc1ccc(OCCCN2CCOCC2)cc1 [PRAMOXINE] | Not Active | Not Active |  | Not Active | Not Active | Not Active |  |  | 121 nM | 51 nM
22 | CCN(CC)CCOC(=O)c1ccc(N)cc1 [PROCAINE] | Not Active | Not Active | Not Active | Not Active | Not Active | Not Active |  |  |  | 
23 | CCCN(CCC)C(=O)C(CCC(=O)O)NC(=O)c1ccccc1 (configuration not stated) [PROGLUMIDE] | Not Active | Not Active | Not Active | Not Active | Not Active | Not Active |  |  |  | 
24 | NC(=O)c1cnccn1 [PYRAZINAMIDE] | Not Active | Not Active | Not Active | Not Active | Not Active | Not Active |  |  |  | 
25 | OC(CCN1CCCCC1)(c1ccccc1)C1CCCCC1 (configuration not stated) [TRIHEXYPHENIDYL] | Not Active | Not Active |  | Not Active | Not Active | Not Active |  |  | 108 nM | 45 nM
26 | Cc1cc2cc3c(C)cc(=O)oc3c(C)c2o1 [TRIOXSALEN] | Not Active | Not Active | Not Active | Not Active | Not Active | Not Active |  |  |  | 
27 | CCCC(CCC)C(=O)O [VALPROIC ACID] | Not Active | Not Active | Not Active | Not Active | Not Active | Not Active |  |  |  | 
28 | CCC1=C[C@@H]2CN(C1)Cc1c([nH]c3ccccc13)[C@@](C(=O)OC)(c1cc3c(cc1OC)N(C)[C@H]1[C@@](O)(C(=O)OC)[C@H](OC(C)=O)[C@]4(CC)C=CCN5CC[C@]31[C@@H]54)C2 [VINORELBINE] | Not Active | Not Active | Not Active | Not Active | Not Active | Not Active |  |  |  | 
